Patent publication EP1351977B1, “ANTIMICROBIAL PSEUDOPEPTIDES” (INSTITUT NATIONAL DE LA RECHERCHE AGRONOMIQUE (INRA), priority 2001, dated 2004)
Where two headings read alike, the source gives them in different places. Ends that are not written are not given here.

Assays:
Type in all cases: cell-based
Serratia entomophila = assay: Bacterial growth inhibition test in Petri dish (solid medium), MIC; conditions: MIC extrapolated from inhibition diameter vs log10 concentration
Septoria tritici sp = assay: Antifungal growth inhibition test in liquid medium
Streptococcus Gr. D = assay: Bacterial growth inhibition test in Petri dish (solid medium), MIC; conditions: MIC extrapolated from inhibition diameter vs log10 concentration
[1] = tested on: Helminthosporium teres sp; assay: Antifungal growth inhibition test in liquid medium
[2] = tested on: Staphylococcus epidermidis; assay: Bacterial growth inhibition test in Petri dish (solid medium), MIC; conditions: MIC extrapolated from inhibition diameter vs log10 concentration
Escherichia coli CIP548 = assay: as above; conditions: MIC extrapolated from inhibition diameter vs log10 concentration
Rhizoctonia solani myc = assay: Antifungal growth inhibition test in liquid medium
Klebsiella pneumoniae = assay: Bacterial growth inhibition test in Petri dish (solid medium), MIC; conditions: MIC extrapolated from inhibition diameter vs log10 concentration
Alternaria brassicae = assay: Antifungal growth inhibition test in liquid medium
Pseudomonas fluorescens = assay: Bacterial growth inhibition test in Petri dish (solid medium), MIC; conditions: MIC extrapolated from inhibition diameter vs log10 concentration
[3] = tested on: Proteus vulgaris CIP58.60; assay: as above; conditions: MIC extrapolated from inhibition diameter vs log10 concentration
Botrytis cinerea myc = assay: Antifungal growth inhibition test in liquid medium
Piricularia oryzae sp = tested on: Piricularia oryzae sp
Bacillus megaterium = assay: Bacterial growth inhibition test in Petri dish (solid medium), MIC; conditions: MIC extrapolated from inhibition diameter vs log10 concentration
Botrytis cinerea sp = assay: Antifungal growth inhibition test in liquid medium
Cladosporium myc = assay: Antifungal growth inhibition test in liquid medium
Cladosporium sp = assay: Antifungal growth inhibition test in liquid medium
Fusarium culmorum sp = assay: Antifungal growth inhibition test in liquid medium
From the text: (§1) Les composés des pics 5, 7 et 8 de la figure 1 ont été testées vis-à-vis d'un ensemble de champignons phytopathogènes. Trois doses (10, 20, et 40 ppm) ont été employées pour chacun des composés.
(§2) L'activité antifongique a été détectée par un test d'inhibition de croissance en milieu liquide. Les spores des champignons à tester ont été mises en suspension dans un milieu de culture de type "Pomme de terre-Glucose". De préférence, on utilise 12 g de milieu Potato Dextrose Broth (Difco) pour 1 litre d'eau déminéralisée. Deux antibiotiques ont été rajoutés au milieu de culture: la tétracycline (concentration finale de 10 µg/ml) et la céfotaxime (100 µg/ml). On dépose 10 µl de chaque composé à tester dans des plaques de microtitration en présence de 90 µl de milieu de culture contenant les spores (à une concentration finale de 10^4 spores/ml). L'incubation a été réalisée en chambre humide à 30°C durant 48 heures. La croissance fongique a été observée au microscope photonique après 24 h et quantifiée après 48 heures par mesure de l'absorbance à 600 nm à l'aide d'un spectrophotomètre lecteur de plaque de microtitration. L'activité des composés contre les champignons phytopathogènes est exprimée par un pourcentage d'inhibition de croissance correspondant à 100 x (1 - absorbance avec produit/ absorbance du témoin sans produit), l'absorbance étant mesurée à 600 nm, 5 jours après le début de l'expérience.

Phytophthora myc = assay: Antifungal growth inhibition test in liquid medium
From the text: as §1, §2

Salmonella sp. = assay: Bacterial growth inhibition test in Petri dish (solid medium), MIC; conditions: MIC extrapolated from inhibition diameter vs log10 concentration
Experimental: Deux tests ont été utilisés pour mesurer l'activité antibactérienne des pseudopeptides, un test d'inhibition de la croissance bactérienne en microplaques (de 96 puits) en milieu liquide et un test d'inhibition de la croissance bactérienne en boîte de Pétri en milieu solide. • * Test en microplaques: La culture bactérienne à tester est prélevée en phase exponentielle, puis diluée au 1/500^ème dans du milieu liquide TSB frais. Chaque puits de la microplaque est rempli avec 100 µl de suspension bactérienne diluée. Dans le premier puits, 100 µl de l'échantillon de pseudopeptide à tester est ajouté à la suspension bactérienne, puis l'échantillon est dilué de 2 en 2 en transférant d'un puits à l'autre 100 µl de suspension. La lecture de la microplaque se fait en mesurant la densité optique à […] (DO600nm) après 24h d'incubation à 28°C ou 37°C selon les bactéries cibles. Connaissant la concentration en pseudopeptide de l'échantillon de départ, ce test permet de déterminer la valeur de la CMI (Concentration Minimale d'Inhibition de la croissance bactérienne). Dans ce test, la CMI correspond à la concentration de l'échantillon pour lequel la DO600nm est inférieure à celle du témoin de culture. • * Test en boîte de Pétri: La culture bactérienne à tester est prélevée en phase exponentielle, puis incorporée à 10 ml d'une gélose dite "sous-couche" (Agarose 1% poids/vol; NaCl 100 mM; Trypcase 0.03 % poids/vol; Tampon phosphate 10 mM pH7.4) à raison de 2.10^5 bactéries/ml. Le mélange est coulé dans une boîte de Pétri ordinaire. 9 puits d'environ 10 µl de volume sont formés dans la "sous-couche" à l'aide d'un embout de pipette stérile de 10 ml. Ces puits sont remplis avec une série de dilutions des pseudopeptides à tester (concentration initiale 500 µg/ml, et dilution de deux en deux jusqu'à 1,95 µg/ml). Après diffusion à température ambiante pendant 2h, une gélose dite "sur-couche" (Agarose 1% wt/vol; Trypcase 6 % wt/vol; Tampon phosphate 10 mM pH7.4) est ajoutée sur la sous-couche à raison de 5 à 10 ml. Après solidification, l'ensemble est mis à incuber pendant une nuit. Le diamètre d'inhibition de la culture bactérienne autour de chaque puits est mesuré en mm; il existe une relation linéaire entre le diamètre d'inhibition et le log10 de la concentration en pseudopeptide qui permet de déterminer par extrapolation la valeur de la CMI.
Une première série de résultats a été obtenue en utilisant le test en boîte de Pétri vis-à-vis de bactéries non pathogènes issues de la collection de Travaux pratiques du laboratoire de Pathologie Comparée de l'Université de Montpellier (France). Dans cette série, les pseudopeptides des pics 5, 7, 8,10 et 11 ont été testés (Tableau 4).

Staphylococcus aureus = assay: as above; conditions: MIC extrapolated from inhibition diameter vs log10 concentration

In the case of “Composé 5: pseudopeptide du pic n° 5 (HPLC, Figure 1) de Xenorhabdus nematophilus F1; Famille 1: Lys Lys Lys Lys Lys Gly; 1052 Da (KKKKKG; also: pseudopeptide modifications)”, the CMI (Serratia entomophila) is reported as 60 µg/mL, the “pourcentage d'inhibition de croissance” value (Septoria tritici sp; 10 ppm) is reported as 88% and the “pourcentage d'inhibition de croissance” value (Septoria tritici sp; 20 ppm) is reported as 88%. For the same substance, the “pourcentage d'inhibition de croissance” value (Septoria tritici sp; 40 ppm) was 85%, the CMI (Streptococcus Gr. D) was 200 µg/mL and the “pourcentage d'inhibition de croissance” value ([1]; 10 ppm) was 70%. For the same substance, the “pourcentage d'inhibition de croissance” value ([1]; 20 ppm) was 91%, the “pourcentage d'inhibition de croissance” value ([1]; 40 ppm) was 95% and the CMI [2] was 30 µg/mL. For the same substance, the CMI (Escherichia coli CIP548) was 15 µg/mL, the “pourcentage d'inhibition de croissance” value (Rhizoctonia solani myc; 10 ppm) was 9.7% and the “pourcentage d'inhibition de croissance” value (Rhizoctonia solani myc; 20 ppm) was 85%. For the same substance, the “pourcentage d'inhibition de croissance” value (Rhizoctonia solani myc; 40 ppm) was 93%, the CMI (Klebsiella pneumoniae) was 30 µg/mL and the “pourcentage d'inhibition de croissance” value (Alternaria brassicae; 10 ppm) was 82%. The “pourcentage d'inhibition de croissance” value (Alternaria brassicae; 20 ppm) was 84%, the “pourcentage d'inhibition de croissance” value (Alternaria brassicae; 40 ppm) was 83% and the CMI (Pseudomonas fluorescens) was 3 µg/mL. For the same substance, the CMI [3] was 200 µg/mL, the “pourcentage d'inhibition de croissance” value (Botrytis cinerea myc; 10 ppm) was 21% and the “pourcentage d'inhibition de croissance” value (Botrytis cinerea myc; 20 ppm) was 34%. For the same substance, the “pourcentage d'inhibition de croissance” value (Botrytis cinerea myc; 40 ppm) was 60%, the “pourcentage d'inhibition de croissance” value (Piricularia oryzae sp; 10 ppm) was 18% and the “pourcentage d'inhibition de croissance” value (Piricularia oryzae sp; 20 ppm) was 22%. For the same substance, the “pourcentage d'inhibition de croissance” value (Piricularia oryzae sp; 40 ppm) was 45%, the CMI (Bacillus megaterium) was 0,75 µg/ml and the “pourcentage d'inhibition de croissance” value (Botrytis cinerea sp; 10 ppm) was 38%. For the same substance, the “pourcentage d'inhibition de croissance” value (Botrytis cinerea sp; 20 ppm) was 95%, the “pourcentage d'inhibition de croissance” value (Botrytis cinerea sp; 40 ppm) was 95% and the “pourcentage d'inhibition de croissance” value (Cladosporium myc; 10 ppm) was 89%. For the same substance, the “pourcentage d'inhibition de croissance” value (Cladosporium myc; 20 ppm) was 90%, the “pourcentage d'inhibition de croissance” value (Cladosporium myc; 40 ppm) was 89% and the “pourcentage d'inhibition de croissance” value (Cladosporium sp; 10 ppm) was 94%. For the same substance, the “pourcentage d'inhibition de croissance” value (Cladosporium sp; 20 ppm) was 94%, the “pourcentage d'inhibition de croissance” value (Cladosporium sp; 40 ppm) was 94% and the “pourcentage d'inhibition de croissance” value (Fusarium culmorum sp; 10 ppm) was 96%. The “pourcentage d'inhibition de croissance” value (Fusarium culmorum sp; 20 ppm) was 96%, the “pourcentage d'inhibition de croissance” value (Fusarium culmorum sp; 40 ppm) was 96% and the “pourcentage d'inhibition de croissance” value (Phytophthora myc; 10 ppm) was 79%. For the same substance, the “pourcentage d'inhibition de croissance” value (Phytophthora myc; 20 ppm) was 78%, the “pourcentage d'inhibition de croissance” value (Phytophthora myc; 40 ppm) was 77% and the CMI (Salmonella sp.) was 30 µg/mL. The CMI (Staphylococcus aureus) was 7,5 µg/ml.
